# Counter-ions that a name gives are not always drawn.
# Target: T1, rh beta tryptase (Homo sapiens, UniProt Q15661)
# T1 construct: purchased Promega
# Assay: tryptase inhibition in vitro test (cleavage of N-p-tosyl-Gly-Pro-Lys-para-nitroaniline, p-nitroaniline measured at 405 nm)
# Format: biochemical
# Details: rh beta tryptase 0.91 U/ml, substrate 0.6 mM, Tris HCl buffer with calcium and heparin, pH 7.4, 37° C., 5 minutes incubation; read-out: Tryptase-inhibiting activity
# Description: The compounds according to the invention are characterised by their tryptase-inhibiting activity. This ability to inhibit tryptase was investigated using the test described below.
# The measurement is carried out in Tris HCl buffer (100 mM), which additionally contains calcium (5 mM) and heparin ([…]), at pH 7.4. The standard used is rh beta tryptase which may be obtained commercially from Promega, for example. The substrate used is N-p-tosyl-Gly-Pro-Lys-para-nitroaniline in a concentration of 0.6 mM. The substrate is digested with tryptase to form p-nitroaniline which can be measured at 405 nm. Usually, an incubation period of 5 minutes and an incubation temperature of 37° C. are chosen. The enzyme activity used is 0.91 U/ml. The measurements are carried out in an Autoanalyser (Cobas Bio) made by Hofmann LaRoche. The potential inhibitory substances are used in concentrations of 10 μM in the screening, the inhibition of the tryptase being given in percent. The IC50 is determined at over 70% inhibition (concentration at which 50% of the enzyme activity is inhibited). After 5 minutes' pre-incubation of the potential inhibitory substances, the substrate is added to start the reaction, the formation of p-nitroaniline being taken as a measurement of the enzyme activity after 5 minutes, after testing the linearity.
# T1 sequence (Q15661 31-275): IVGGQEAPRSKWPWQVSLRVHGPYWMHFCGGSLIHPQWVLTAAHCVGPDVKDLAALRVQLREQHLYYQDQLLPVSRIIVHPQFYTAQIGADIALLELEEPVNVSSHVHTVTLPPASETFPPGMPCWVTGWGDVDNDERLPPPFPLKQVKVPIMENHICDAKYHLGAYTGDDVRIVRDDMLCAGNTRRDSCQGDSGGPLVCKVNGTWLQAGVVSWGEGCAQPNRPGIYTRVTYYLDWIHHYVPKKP
row,SMILES,IC50
1,"CN(C(=O)CN1CCC(N(Cc2ccccc2)C2CCCN2)CC1)c1ccc2c(c1)nc(CCc1ccc(C(=N)N)cc1)n2C (stereo not shown) [Example 43, N-{2-[2-(4-Amidinophenyl)-ethyl]-1-methyl-benzimidazol-5-yl}-N-methyl-2-{4-[(N-benzyl)-2-pyrrolidylamino]-piperid-1-yl}-acetamide, dihydrochloride]",4 to 30 nM
2,"CN(C(=O)CN1CCC(Nc2ccccc2Br)CC1)c1ccc2c(c1)nc(CCc1ccc(C(=N)N)cc1)n2C [Example 35, N-{2-[2-(4-Amidinophenyl)-ethyl]-1-methyl-benzimidazol-5-yl}-N-methyl-2-[4-(2-bromophenylamino)-piperid-1-yl]-acetamide, dihydrochloride]",0.5 to 3 nM
3,"CN(c1ccccn1)C1CCN(CC(=O)N(Cc2cccc3ccccc23)c2ccc3c(c2)nc(CCc2ccc(C(=N)N)cc2)n3C)CC1 [Example 19, N-{2-[2-(4-Amidinophenyl)-ethyl]-1-methyl-benzimidazol-5-yl}-N-[naphth-1-ylmethyl]-2-[4-(2-pyridyl-N-methyl-amino)-piperid-1-yl]-acetamide, dihydrochloride]",4 to 30 nM
4,"Cn1c(CCc2ccc(C(=N)N)cc2)nc2cc(N(Cc3cccc4ccccc34)C(=O)NCc3ccccc3)ccc21 [Example 5, N-{2-[2-(4-Amidinophenyl)-ethyl]-1-methyl-benzimidazol-5-yl}-N-(naphth-1-ylmethyl)-N′-benzyl-urea, Hydrochloride]",31 to 1000 nM
5,"CN(C(=O)CN1CCC(NCc2ccccn2)CC1)c1ccc2c(c1)nc(CCc1ccc(C(=N)N)cc1)n2C [Example 29, N-{2-[2-(4-Amidinophenyl)-ethyl]-1-methyl-benzimidazol-5-yl}-N-methyl-2-[4-(2-pyridylmethylamino)-piperid-1-yl]-acetamide, dihydrochloride]",31 to 1000 nM
6,"CN(C(=O)CN1CCC(Nc2ccccc2I)CC1)c1ccc2c(c1)nc(CCc1ccc(C(=N)N)cc1)n2C [Example 37, N-{2-[2-(4-Amidinophenyl)-ethyl]-1-methyl-benzimidazol-5-yl}-N-methyl-2-[4-(2-iodophenylamino)-piperid-1-yl]-acetamide, dihydrochloride]",0.5 to 3 nM
7,"CN(CCCO)C1CCN(CC(=O)N(Cc2cccc3ccccc23)c2ccc3c(c2)nc(CCc2ccc(C(=N)N)cc2)n3C)CC1 [Example 2, N-{2-[2-(4-Amidinophenyl)-ethyl]-1-methyl-benzimidazol-5-yl}-N-[naphth-1-ylmethyl]-2-{4-[N-methyl-N-(3-hydroxypropyl)-amino]-piperid-1-yl}-acetamide, Trihydrochloride]",4 to 30 nM
8,"CN(C(=O)CN1CCC(Nc2ccc(C(C)(C)C)cc2Cl)CC1)c1ccc2c(c1)nc(CCc1ccc(C(=N)N)cc1)n2C [Example 69, N-{2-[2-(4-Amidinophenyl)-ethyl]-1-methyl-benzimidazol-5-yl}-N-methyl-2-[4-(2-chloro-4-tert.butylamino)-piperid-1-yl]-acetamide, dihydrochloride]",31 to 1000 nM
9,"Cn1c(CCc2ccc(C(=N)N)cc2)nc2cc(N(Cc3cccc4ccccc34)C(=O)Nc3cccc4ccccc34)ccc21 [Example 75, N-{2-[2-(4-Amidinophenyl)-ethyl]-1-methyl-benzimidazol-5-yl}-N-[naphth-1-ylmethyl]-N′-(1-naphthyl)-urea, hydrochloride]",4 to 30 nM
10,"CN(C)CCCN(C)C(=O)N(Cc1cccc2ccccc12)c1ccc2c(c1)nc(CCc1ccc(C(=N)N)cc1)n2C [Example 78, N-{2-[2-(4-Amidinophenyl)-ethyl]-1-methyl-benzimidazol-5-yl}-N-[naphth-1-ylmethyl]-N′-methyl-N′-(3-dimethylamino-propyl)-urea, hydrochloride]",31 to 1000 nM
11,"Cn1c(CCc2ccc(C(=N)N)cc2)nc2cc(N(Cc3cccc4ccccc34)C(=O)Nc3cccc(Cl)c3)ccc21 [Example 74, N-{2-[2-(4-Amidinophenyl)-ethyl]-1-methyl-benzimidazol-5-yl}-N-[naphth-1-ylmethyl]-N′-(3-chloro)-phenyl, hydrochloride]",31 to 1000 nM
12,"Cn1c(CCc2ccc(C(=N)N)cc2)nc2cc(N(Cc3cccc4ccccc34)C(=O)Nc3ccccc3)ccc21 [Example 72, N-{2-[2-(4-Amidinophenyl)-ethyl]-1-methyl-benzimidazol-5-yl}-N-[naphth-1-ylmethyl]-N′-phenyl-urea, hydrochloride]",31 to 1000 nM

# The remaining lines, values ahead:
row,IC50,SMILES
1,4 to 30 nM,"CN(C)c1ccc(CN(C(=O)CN2CCC(Nc3ccccn3)CC2)c2ccc3c(c2)nc(CCc2ccc(C(=N)N)cc2)n3C)c2ccccc12 [Example 51, N-{2-[2-(4-Amidinophenyl)-ethyl]-1-methyl-benzimidazol-5-yl}-N-[4-dimethylamino-naphth-1-ylmethyl]-2-[4-(2-pyridylamino)-piperid-1-yl]-acetamide, dihydrochloride]"
2,4 to 30 nM,"Cn1c(CCc2ccc(C(=N)N)cc2)nc2cc(N(Cc3ccccc3)C(=O)CN3CCC(Nc4ccccn4)CC3)ccc21 [Example 57, N-{2-[2-(4-Amidinophenyl)-ethyl]-1-methyl-benzimidazol-5-yl}-N-[benzyl]-2-[4-(2-pyridylamino)-piperid-1-yl]-acetamide, dihydrochloride]"
3,4 to 30 nM,"Cn1c(CCc2ccc(C(=N)N)cc2)nc2cc(N(Cc3cccc4ccccc34)C(=O)CN3CCC(NC(=O)c4ccccc4)CC3)ccc21 [Example 8, N-{2-[2-(4-Amidinophenyl)-ethyl]-1-methyl-benzimidazol-5-yl}-N-[naphth-1-ylmethyl]-2-[4-benzoic acid amide-piperid-1-yl]-acetamide, dihydrochloride]"
4,4 to 30 nM,"Cn1c(CCc2ccc(C(=N)N)cc2)nc2cc(N(Cc3ccncc3)C(=O)CN3CCC(Nc4ccccn4)CC3)ccc21 [Example 46, N-{2-[2-(4-Amidinophenyl)-ethyl]-1-methyl-benzimidazol-5-yl}-N-[4-pyridylmethyl]-2-[4-(2-pyridylamino)-piperid-1-yl]-acetamide, dihydrochloride]"
5,4 to 30 nM,"Cn1c(CCc2ccc(C(=N)N)cc2)nc2cc(N(Cc3cccc4ccccc34)C(=O)CN3CCC(Nc4ccc(-c5ccccc5)cc4)CC3)ccc21 [Example 23, N-{2-[2-(4-Amidinophenyl)-ethyl]-1-methyl-benzimidazol-5-yl}-N-[naphth-1-ylmethyl]-2-[4-(4-biphenylamino)-piperid-1-yl]-acetamide, dihydrochloride]"
6,0.5 to 3 nM,"Cn1c(CCc2ccc(C(=N)N)cc2)nc2cc(N(Cc3cccc4ccccc34)C(=O)CN3CCC(Nc4ccccn4)CC3)ccc21 [Example 6, N-{2-[2-(4-Amidinophenyl)-ethyl]-1-methyl-benzimidazol-5-yl}-N-[naphth-1-ylmethyl]-2-[4-(2-pyridylamino-piperid-1-yl]-acetamide, dihydrochloride]"
7,4 to 30 nM,"Cn1c(CCc2ccc(C(=N)N)cc2)nc2cc(N(Cc3ccc(N)cc3)C(=O)CN3CCC(Nc4ccccc4)CC3)ccc21 [Example 44, N-{2-[2-(4-Amidinophenyl)-ethyl]-1-methyl-benzimidazol-5-yl}-N-[4-aminophenyl-methyl]-2-(4-phenylamino-piperid-1-yl)-acetamide, dihydrochloride]"
8,4 to 30 nM,"Cn1c(CCc2ccc(C(=N)N)cc2)nc2cc(N(Cc3ccncc3)C(=O)CN3CCC(Nc4ccccc4)CC3)ccc21 [Example 45, N-{2-[2-(4-Amidinophenyl)-ethyl]-1-methyl-benzimidazol-5-yl}-N-[4-pyridylmethyl]-2-(4-phenylamino-piperid-1-yl)-acetamide, dihydrochloride]"
9,4 to 30 nM,"CN(C(=O)CN1CCC(Nc2ccccc2)CC1)c1ccc2c(c1)nc(CCc1ccc(C(=N)N)cc1)n2C [Example 108, N-{2-[2-(4-Amidinophenyl)-ethyl]-1-methyl-benzimidazol-5-yl}-N-methyl-2-[4-(phenylamino)-piperid-1-yl]-acetamide, dihydrochloride]"
10,0.5 to 3 nM,"CN(C(=O)CN1CCC(Nc2cccc(Cl)c2)CC1)c1ccc2c(c1)nc(CCc1ccc(C(=N)N)cc1)n2C [Example 106, N-{2-[2-(4-Amidinophenyl)-ethyl]-1-methyl-benzimidazol-5-yl}-N-methyl-2-[4-(3-chlorophenylamino)-piperid-1-yl]-acetamide, dihydrochloride]"
11,4 to 30 nM,"Cn1c(CCc2ccc(C(=N)N)cc2)nc2cc(N(Cc3cccc4ccccc34)C(=O)CN3CCC(Nc4ccccc4)CC3)ccc21 [Example 1, N-{2-[2-(4-Amidinophenyl)-ethyl]-1-methyl-benzimidazol-5-yl}-N-[naphth-1-ylmethyl]-2-(4-phenylamino-piperid-1-yl)-acetamide, Dihydrochloride]"
12,4 to 30 nM,"COc1ccc(NC2CCN(CC(=O)N(Cc3cccc4ccccc34)c3ccc4c(c3)nc(CCc3ccc(C(=N)N)cc3)n4C)CC2)cc1 [Example 14, N-{2-[2-(4-Amidinophenyl)-ethyl]-1-methyl-benzimidazol-5-yl}-N-[naphth-1-ylmethyl]-2-[4-(4-methoxyphenylamino)-piperid-1-yl]-acetamide, dihydrochloride]"
13,4 to 30 nM,"Cn1c(CCc2ccc(C(=N)N)cc2)nc2cc(N(Cc3cccc4ccccc34)C(=O)CN3CCC(Nc4ccc(O)cc4)CC3)ccc21 [Example 18, N-{2-[2-(4-Amidinophenyl)-ethyl]-1-methyl-benzimidazol-5-yl}-N-[naphth-1-ylmethyl]-2-[4-(4-hydroxyphenylamino)-piperid-1-yl]-acetamide, dihydrochloride]"

# — patent publication US6656956B2, “Benzimidazole derivatives, processes for preparing them and their use as pharmaceutical compositions” (Boehringer Ingelheim Pharma KG, priority 2001, dated 2003)
